From ChEMBL document CHEMBL1128061, “N-substituted glycines as replacements for proline in tripeptide aldehyde thrombin inhibitors” (Bioorg Med Chem Lett, 1995) come the findings set out here.

Structures are written as SMILES. Where a SMILES comes first, the peptide text is derived from it. [ ]: non-standard residue; d: D form. dPip = O=C(O)[C@H]1CCCCN1

Experiment [1] in a line: Ratio of association constant of thrombin and tissue-type plasminogen activator.
The target of experiment [2] is Prothrombin (Homo sapiens) (UniProt P00734). Description: Association constant for thrombin.
Experiment [3] has as its target Thrombin & trypsin (Homo sapiens) (UniProt P00734+P07477+P07478+P35030). Description: Ratio of association constant of thrombin and trypsin. Type of experiment: protein assay.
The nature of experiment [4]: Ratio of association constant of thrombin and plasmin.

Regarding `N=C(N)NCCC[C@@H](C=O)NC(=O)CN(CCCc1ccccc1)C(=O)[C@H]1CCCCN1`, the Ratio came out at 4000 in experiment [1], 4 in experiment [3] and 200 in experiment [4]. For the same molecule, in experiment [2], the K ass amounted to 24 L/µM.
As for `CC(C)N(CC(=O)N[C@H](C=O)CCCN=C(N)N)C(=O)[C@H]1CCCCN1`, the figures for the Ratio in experiment [1], in experiment [3] and in experiment [4] were 10000, 20 and 10000, respectively. The K ass in experiment [2] was found to be 10 L/µM.
In the case of `CC(C)CCN(CC(=O)N[C@H](C=O)CCCN=C(N)N)C(=O)[C@H]1CCCCN1`, the Ratio in experiment [1] is 4000; in experiment [3], 2.7; in experiment [4], 270. For the same molecule, the K ass in experiment [2] was determined as 16 L/µM.
The matching figures for `CC(C)CN(CC(=O)N[C@H](C=O)CCCN=C(N)N)C(=O)[C@H]1CCCCN1`: 24000, 15, 480 and 24 L/µM.
As for `CCN(CC(=O)N[C@H](C=O)CCCN=C(N)N)C(=O)[C@H]1CCCCN1`, the Ratio in experiment [1] came out at 6600; in experiment [3] it was 25; in experiment [4], 3300. The molecule further registered a K ass in experiment [2] of 33 L/µM.
In the same order, the values of `CCCN(CC(=O)N[C@H](C=O)CCCN=C(N)N)C(=O)[C@H]1CCCCN1` are 8500, 14, 680 and 34 L/µM.
The matching figures for `N=C(N)NCCC[C@@H](C=O)NC(=O)CN(C(=O)[C@H]1CCCCN1)c1ccccc1`: 4000, 15, 400 and 16 L/µM.
In the same order, the values of `CN(CC(=O)N[C@H](C=O)CCCN=C(N)N)C(=O)[C@H]1CCCCN1` are 5500, 24, 730 and 22 L/µM.
Consider `N=C(N)NCCC[C@@H](C=O)NC(=O)CN(CCc1ccccc1)C(=O)[C@H]1CCCCN1`, for which the values for the Ratio in experiment [1], in experiment [3] and in experiment [4] were 14500, 32 and 200, respectively. Also, the K ass in experiment [2] is 87 L/µM.
As to `N=C(N)NCCC[C@@H](C=O)NC(=O)CN(Cc1ccccc1)C(=O)[C@H]1CCCCN1`, the Ratio came to 1000 in experiment [1], 1 in experiment [3] and 77 in experiment [4]. In experiment [2], this molecule registered a K ass of 10 L/µM.
In the same order, the values of `N=C(N)NCCC[C@@H](C=O)NC(=O)[C@@H]1CCCN1C(=O)[C@H]1CCCCN1` (H-[dPip]-Pro-Arg-aldehyde) are 6700, 3.3, 220 and 200 L/µM.
The matching figures for `N=C(N)NCCC[C@@H](C=O)NC(=O)CN(CCC1CCCCC1)C(=O)[C@H]1CCCCN1`: 770, 0.9, 16 and 5.4 L/µM.
